Reference: patent US7964191B2, “Compositions and methods for the treatment of ophthalmic disease” (Allergan, Inc., priority 2006, dated 2011)

Tests used:
[1] = system: exudative age related macular degeneration; test: Treatment of a patient with exudative age related macular degeneration; assay type: in vivo, human
Protocol: A patient suffering from exudative age related macular degeneration in the right eye is given a subretinal injection of a biodegradable implant containing 1 μg total of equimolar amounts of oligonucleotide pair 4 (SEQ ID NO: 36 and SEQ ID NO: 37) in a volume of 100 μl. The eye is monitored weekly for 16 weeks.
A patient is diagnosed with exudative age-related macular degeneration.
The patient is given an subconjunctival injection of a solution containing 10 mg of 1,1′-[1,4,phenylene-bis(methylene)]-bis-1,4,8,11-tetraazacyclotetradecane (AMD3100), see Bridger et al., US2004/0209921, incorporated by reference herein) in each eye once every two weeks for 6 months. The patient is monitored bimonthly and visual acuity tested.

CXCR4 mRNA = test: CXCR4 RNA expression in ARPE-19 cells by whole human genome array hybridization; assay type: cell-based; settings: for expression of intact intracellular CXCR4 RNA: cells uninduced with t-BH, compared to cells untreated with siRNA or given control siRNA, FIG. 3
Protocol: To isolate RNA from cells, 1 ml Qiazol® (a phenol/guanidinium isothiocyanate-based RNAse inhibitory lysis buffer sold by Qiagen, Inc.) was added to the ARPE-19 cells and the lysates then scraped into 2 ml tubes. 200 μl of chloroform per ml of Qiazol® was then added, the tubes mixed and centrifuged at 12,000×g for 15 minutes at 4° C. The aqueous phase was removed and applied to an RNeasy® mini column (Qiagen), washed and the column eluted with water. Five micrograms of the eluate were used for subsequent RT-PCR reactions. RT-PCR reactions were carried out using the Stratascript® First Strand Synthesis System (Stratagene). The RNA was denatured at 65° C. for 5 minutes, cooled at RT for 10 minutes then incubated at 42° C. for 60 minutes with reverse transcriptase.
A whole human genome DNA oligonucleotide array (Agilent Technnologies, G4112A array) was used to hybridize against RNA samples prepared from ARPE-19 cells treated with t-BH. This 44K slide format contains a collection of 60-mer oligonucleotides with sequences representing over 41 K human genes and transcripts.
RNA labeling was performed using the Low RNA Input Fluorescent Linear Amplification kit (LIK®) from Agilent Technologies (#5184-3523) following the manufacturer's recommendations. Briefly, 200 ng of total RNA from the ARPE-19 cells isolated as described in Example 2 were reverse transcribed in a 20 μL volume using with 1 μL Moloney Murine Leukemia Virus reverse transcriptase (MMLV-RT) and 1.2 μL of T7 promoter primer in 1× First Strand Buffer at 40° C. for 2 hours. From the double-stranded DNA preparation, transcription and direct labeling were prepared in 80 μL at 40° C. for 2 hours using 0.8 μL of T7 RNA polymerase, 0.6 μL inorganic pyrrophosphatase, 2.4 μL of each Cy-dye-CTP at 10 mM (PerkinElmer/NEN Life Sciences Cyanine-3-CTP #NEL580 and Cyanine-5-CTP #NEL581) in 4% PEG solution and 1× Transcription buffer. Cyanine dyes are highly sensitive fluorescent dyes.
Amplified and labeled cRNA was purified on Rneasy® mini columns (Qiagen, Inc.) according to manufacturer's protocol. cRNA was quantified by absorbance at 260 nm, 550 nm and 650 nm. Once labeling is complete, both Cy3 and Cy5 RNA samples are combined and hybridized to the microarray using the Agilent In Situ Hybridization kit (#5184-3568) following Agilent's recommendations.
Briefly 750 ng of cyanine 3-labeled linearly amplified cRNA and 750 ng of cyanine 5-labeled linearly amplified cRNA are combined to 1× control targets, 0.5× fragmentation buffer. This 2× target solution is denaturated at 60° C. for 30 minutes and 1× hybridization buffer in a 500 μL final volume is added to terminate the fragmentation reaction.
The target solution is then dispensed onto the 44K microarray. Incubation time was 17 hours at 60° C. in a hybridization oven with rotation at 4 rpm (Agilent Technologies #G2545A). Washes were performed for 5 minutes in 6×SSPE, 0.005% N-lauroyl sarcosine at room temperature, then for 5 minutes in 0.06×SSPE, 0.005% N-lauroyl sarcosine at room temperature, and finally for 30 seconds in Agilent Stabilization and Drying Solution®. The dried slides were scanned using a microarray scanner.
Total RNA was isolated from the cells (uninduced with t-BH) and the amount of CXCR4 RNA determined by gene array hybridization. The amount of CXCR4 in the naïve cells are standardized as “100%”.

ARPE-19 cells = test: Oxidative stress/cell viability (WST) assay in ARPE-19 cells exposed to t-BH; assay type: cell-based
Protocol: ARPE 19 cells (American Type Tissue Collection (ATTC) Number CRL2302) were plated at a cell density of 6×10^4 cells per 10 cm tissue culture dish, in Delbecco's Modified Eagle's Medium (DMEM) F12 containing 10% fetal bovine serum (FBS) and 1% antibiotic/antimycotic solution (10,000 units of penicillin G (sodium salt), 10,000 μg/ml of streptomycin sulfate, and 25 μg/ml of amphotericin B in 0.85% saline) incubated at 37° C. overnight.
These oligonucleotides or control oligonucleotides (Stealth RNAi negative control Med GC (Invitrogen, Inc.)) were added in 1.5 ml of OptiMem® media (Gibco BRL) to a final concentration of 25 nM. In a separate equal volume of OptiMem® media, 15 μl of lipofectamine reagent (Lipofectamine® 2000, Invitrogen, Inc.) was similarly added to equal volume of OptiMem® media and incubated at room temperature for 5 minutes.
Both solutions were then mixed together and further incubated for 20 minutes at room temperature. The cells were washed once with OptiMem® media, the total volume of the mixture was brought up to 10 ml with OptiMem® media (Gibco BRL) and then added to the cells. Cells were permitted to incubate overnight at 37° C. 24 hours following transfection, the transfection mixture was removed and 10 ml of fresh DMEM F12 media added to the cells. […]
Cell viability was measured using the WST assay (Chemicon International, Inc.) according to the manufacturer's instructions. […] Thus, the formazan dye produced by viable cells can be quantified by a multiwell spectrophotometer (microplate reader) by measuring the absorbance of the dye solution at 440 nm.
In this case, 10 μl of WST-1 reagent was added to each well after 24 hours. The optimum assay development time was determined to be 1.5 hours. Plates were then read in a Spectramax M2 Platereader® at 450 nm. […]

[2] = Example 8, subconjunctival 10 mg each eye every two weeks for 6 months

With c1cc(CN2CCCNCCNCCCNCC2)ccc1CN1CCCNCCNCCCNCC1 [AMD3100, 1,1′-[1,4,phenylene-bis(methylene)]-bis-1,4,8,11-tetraazacyclotetradecane] as the compound, how does the “fluorescein angiography: leakage of blood into retinal tissues” value ([1]; Example 8, end of six-month treatment) read?
Its value is “no detectable leakage of blood into retinal tissues”.

What about the “visibly apparent extent of retinal degeneration” value ([1]; Example 8, end of six-month treatment versus beginning of study) of the same compound?
Its value is “no increase in the visibly apparent extent of retinal degeneration”.

And the “increase in visual acuity, left eye” value [1, 2]?
The value was “one”.

What about the “increase in visual acuity, right eye” value [1, 2] of the same compound?
Its value is “two”.

What does the source list for CC(C)(C)OO [t-BH, tertiary-butylhydroperoxide]?
expression of CXCR4 RNA over baseline (CXCR4 mRNA; ARPE-19 cells, immediately after six hours' incubation with t-BH): 30 fold; increase in expression of CXCR4 RNA over baseline (CXCR4 mRNA; ARPE-19 cells, immediately after three hours' exposure to t-BH, untreated cells as baseline): 20 fold; reduction in CXCR4 expression after recovery (CXCR4 mRNA; t-BH for three hours, then further three hours in t-BH-free medium): almost no reduction in CXCR4 expression; decrease in CXCR4 RNA after recovery (CXCR4 mRNA; t-BH for three hours, then further twenty four hours in t-BH-free medium, versus levels immediately following exposure): approximately 35%; cells surviving for at least 24 hours (ARPE-19 cells; ARPE-19 cells exposed to t-BH for 3 hours, then non t-BH-containing media): approximately 70%; cell death (ARPE-19 cells; ARPE-19 cells exposed to t-BH for 6 hours): cell death by 24 hours

Which results are given for “Pair 1: anti-CXCR4 double-stranded siRNA, SEQ ID NO: 10 and SEQ ID NO: 11 (chain 1 AACAGUGGAAGAAAGCUAGGGGCUC; chain 2 GAGGCCCUAGCUUUCUUCCACUGUU; listed as RNA, chemistry not given here)”?
expression of intact intracellular CXCR4 RNA (CXCR4 mRNA): reduce the expression of intact intracellular CXCR4 RNA; inhibition of cell death induced by oxidative stress (WST cell viability) (ARPE-19 cells; ARPE-19 cells, 300 uM t-BH for 6 hours, siRNA at 10 nM or 25 nM, FIG. 2): inhibits the cell death induced by oxidative stress (exposure to 300 uM t-BH) in a dose-dependent fashion

Which “expression of intact intracellular CXCR4 RNA” value (CXCR4 mRNA) does the source give for “Pair 2: anti-CXCR4 siRNA, SEQ ID NO: 12 and SEQ ID NO: 13 (chain 1 AACAGUGGAAGAAAGCUAGGGCCUC; chain 2 GAGGCCCUAGCUUUCUUCCACUGUU; listed as RNA, chemistry not given here)” here?
The value was “reduce the expression of intact intracellular CXCR4 RNA”.

How did the “expression of intact intracellular CXCR4 RNA” value (CXCR4 mRNA) turn out when “Pair 3: anti-CXCR4 siRNA, SEQ ID NO: 14 and SEQ ID NO: 15 (chain 1 CUUGGAGUGUGACAGCUUGGAGAUG; chain 2 CAUCUCCAAGCUGUCACACUCCAAG; listed as RNA, chemistry not given here)” was run?
The value was “reduce the expression of intact intracellular CXCR4 RNA”.

How did the “extent of macular degeneration” value ([1]; Example 6, end of the 16 week period) turn out when “Pair 4: anti CXCR4 siRNA, SEQ ID NO: 36 and SEQ ID NO: 37 (chain 1 CCCACCAUCUACUCCAUCAUCUUCU; chain 2 AGAAGAUGAUGGAGUAGAUGGUGGG; listed as RNA, chemistry not given here)” was run?
Its value is “no increase in the extent of macular degeneration is observed”.

And the “improvement in visual acuity” value ([1]; Example 6, right eye, subretinal biodegradable implant, 1 μg total, by week 3, maintained for 16 weeks)?
Its value is “two”.
